This is an account of results in patent US6395732B1, “Pyrimidin-aminomethyl-pyridine derivatives, their preparation and their use in the control of helicobacter bacteria” (BYK Gulden Lomberg Chemische Fabrik GmbH, priority 1998, dated 2002).

One data set has as its system Helicobacter pylori. The data set can be described thus: Activity against Helicobacter pylori, agar method of Iwahi et al. (MIC 50). Type of data set: cell-based. Particulars: Columbia agar (Oxoid), growth period of 4 days, approximate values; for MIC50: Helicobacter pylori, 96 h, read-out: Appr. MIC 50. The text has this:
The compounds of the formula I were investigated with respect to their activity against Helicobacter pylori following the method described by Tomoyuki Iwahi et al. (Antimicrobial Agents and Chemotherapy, 1991, 490-496) using Columbia agar (Oxoid) and a growth period of 4 days.

The melting point is the temperature of the solid-liquid transition. `Cc1nc(C)c(Cl)c(NCc2nccc(SCCCSc3ncc(-c4ccccc4)[nH]3)c2C)n1.Cl` had a melting point of 188 to 190 °C.
`Cc1nc(C)c(Cl)c(NCc2nccc(OCCCSCCn3c([N+](=O)[O-])cnc3C)c2C)n1` [Compound 33, (5-Chloro-2,6-dimethyl-pyrimidin-4-yl)-(3-methyl-4-{3-[2-(2-methyl-5-nitro-imidazol-1-yl)-ethylsulfanyl]-propoxy}-pyridin-2-ylmethyl)-amine]: the melting point was in the range of 169 to 171 °C. For the same compound, the MIC50 in the data set with Helicobacter pylori is at most 0.1 µg/mL.
The corresponding values for `Cc1nc(C)c(Cl)c(NCc2nccc(N(C)CCCSCCn3c([N+](=O)[O-])cnc3C)c2Cl)n1` [Compound 18, (5-Chloro-2,6-dimethylpyrimidin-4-yl)-[3-chloro-4-(methyl-{3-[2-(2-methyl-5nitroimidazol-1-yl)ethylsulfanyl]propyl}amino)pyridin-2-ylmethyl]amine] are 123 to 126 °C and at most 0.1 µg/mL.
On to `Cc1nc(C)c(Cl)c(NCc2nccc(OCCCCN3CCN(Cc4ccncc4)CC3)c2C)n1` [Compound 11, (5-Chloro-2,6-dimethylpyrimidin-4-yl)-{3-methyl-4-[4-(4-pyridin-4-ylmethylpiperazin-1-yl)butoxy]pyridin-2-ylmethyl}amine], for which the melting point is 157 to 158 °C.
In the case of `Cc1nc(C)c(Cl)c(NCc2nccc(N(C)CCN3CCc4ccccc4C3)c2Cl)n1` [Compound 1, (3-Chloro-4-{[2-(3,4-dihydro-1H-isoquinolin-2-yl)ethyl]methylamino}pyridin-2-ylmethyl)-(5-chloro-2,6-dimethylpyrimidin-4-yl)amine], the melting point was 81 to 93 °C.
`Cc1nc(C)c(Cl)c(NCc2nccc(SCCCN3CCN(CC4CN(Cc5ccncc5)C(=O)O4)CC3)c2C)n1` (centres unmarked) [Compound 38, 5-[4-(3-{2-[(5-Chloro-2,6-dimethyl-pyrimidin-4-ylamino)-methyl]-3-methyl-pyridin-4-ylsulfanyl}-propyl)-piperazin-1-ylmethyl]-3-pyridin-4-ylmethyl-oxazolidin-2-one] showed a melting point of 123 to 126 °C. For the same compound, in the data set on Helicobacter pylori, the MIC50 is at most 0.1 µg/mL.
For `Cc1nc(C)c(Cl)c(NCc2nccc(OCCOCCSCCn3c([N+](=O)[O-])cnc3C)c2C)n1` [Compound 28, (5-Chloro-2,6-dimethyl-pyrimidin-4-yl)-[3-methyl-4-(2-{2-[2-(2-methyl-5nitro-imidazol-1-yl)ethylsulfanyl]-ethoxy}-ethoxy)-pyridin-2-ylmethyl]-amine] the same measures were 102 to 105 °C and at most 0.1 µg/mL.
The corresponding values for `Cc1nc(C)c(Cl)c(NCc2nccc(SCCOCCSCc3cccnc3)c2C)n1` [Compound 52, (5-Chloro-2,6-dimethyl-pyrimidin-4-yl)-(3-methyl-4-{2-[2-(pyridin-3-ylmethylsulfanyl)-ethoxy]-ethylsulfanyl}-pyridin-2-ylmethyl)-amine] are 90 to 92 °C and at most 0.1 µg/mL.
For `Cc1nc(C)c(Cl)c(NCc2nccc(SCCCCN3CCN(Cc4ccncc4)CC3)c2C)n1` [Compound 12, (5-Chloro-2,6-dimethylpyrimidin-4-yl)-{3-methyl-4-[4-(4-pyridin-4-ylmethylpiparazin-1-yl)butylsulfanyl]pyridin-2-ylmethyl}amine], the “Appr. MIC 50” value in the data set on Helicobacter pylori is “≦0.1 μg/ml”.
Regarding `Cc1nc(C)c(Cl)c(NCc2nccc(OCCCCSCc3ccccn3)c2C)n1` [Compound 51, (5-Chloro-2,6-dimethyl-pyrimidin-4-yl)-{3-methyl-4-[4-(pyridin-2-ylmethylsulfanyl)-butoxy]-pyridin-2-ylmethyl}-amine], the melting point fell in the range of 113 to 114 °C. Further, in the data set with Helicobacter pylori, the MIC50 was at most 0.1 µg/mL.
For `Cc1c(SCCCSCCn2c([N+](=O)[O-])cnc2C)ccnc1CNc1ncncc1Cl` [Compound 9, (5-Chloropyrimidin-4-yl)-(3-methyl-4-{3-[2-(2-methyl-5-nitroimidazol-1-yl)ethylsulfanyl]propylsulfanyl}-pyridin-2-ylmethyl)amine] the same measures were 119 to 121 °C and at most 0.1 µg/mL.
`Cc1nc(C)c(Cl)c(NCc2nccc(OCCCCSc3ncccn3)c2C)n1` [Compound 6]: the “Appr. MIC 50” value with Helicobacter pylori is “≦0.1 μg/ml”.
For the compound `CN(CCO)c1ccnc(CNc2ncncc2Cl)c1Cl` [Compound 55, 2-({3-Chloro-2-[(5-chloro-pyrimidin-4-ylamino)-methyl]-pyridin-4-yl}-methyl-amino)-ethanol], the melting point lay within 158 to 161 °C. Also, the MIC50 in the data set with Helicobacter pylori is at most 0.1 µg/mL.
`Cc1nc(C)c(Cl)c(NCc2nccc(OCCCCN3CCNCC3)c2C)n1` [Compound 14, (5-Chloro-2,6-dimethylpyrimidin-4-yl)-[3-methyl-4-(4-piperazin-1-ylbutoxy)pyridin-2-ylmethyl]amine] had a melting point of 140 to 144 °C.
`Cc1c(SCc2ccco2)ccnc1CNc1ncncc1Cl` [Compound 59, (5-Chloro-pyrimidin-4-yl)-[4-(furan-2-ylmethylsulfanyl)-3-methyl-pyridin-2-ylmethyl]-amine] yielded a melting point of 169 to 170 °C. For the same compound, the MIC50 in the data set on Helicobacter pylori was at most 0.1 µg/mL.
`Cc1nc(C)c(Cl)c(NCc2nccc(SCCCSCCSc3ncccn3)c2C)n1` [Compound 41, (5-Chloro-2,6-dimethyl-pyrimidin-4-yl)-(3-methyl-4-{3-[2-(pyrimidin-2-ylsulfanyl)-ethylsulfanyl]-propylsulfanyl}-pyridin-2-ylmethyl)-amine] gave a melting point of 112 to 115 °C. Further, the MIC50 with Helicobacter pylori is at most 0.1 µg/mL.
For `Cc1nc(C)c(Cl)c(NCc2nccc(SCCCCN3CCNCC3)c2C)n1` [Compound 17, (5-Chloro-2,6-dimethylpyrimidin-4-yl)-[3-methyl-4-(4-piperazin-1-ylbutylsulfanyl)pyridin-2-ylmethyl]amine] the same measures were 143 to 145 °C and at most 0.1 µg/mL.
As to `Cc1c(OCCCSCCn2c([N+](=O)[O-])cnc2C)ccnc1CNc1ncncc1Cl` [Compound 56, (5-Chloro-pyrimidin-4-yl)-(3-methyl-4-{3-[2-(2-methyl-5-nitro-imidazol-1-yl)-ethylsulfanyl]-propoxy}-pyridin-2-ylmethyl)-amine], the melting point lay within 143 to 146 °C. The MIC50 in the data set with Helicobacter pylori is at most 0.1 µg/mL.
As to `Cc1nc(C)c(Cl)c(NCc2nccc(OCCCCSCc3cccnc3)c2C)n1` [Compound 50], in the data set on Helicobacter pylori, the “Appr. MIC 50” value is “≦0.1 μg/ml”.
Compound `Cc1c(SCCCSCc2ccncc2)ccnc1CNc1ncncc1Cl` [Compound 8, (5-Chloropyrimidin-4-yl)-{3-methyl-4-[3-(pyridin-4-ylmethylsulfanyl)propylsulfanyl]-pyridin-2-ylmethyl}amine] returned a melting point of 148 to 149 °C. Also, the MIC50 in the data set with Helicobacter pylori is at most 0.1 µg/mL.
For `Cc1nc(C)c(Cl)c(NCc2nccc(SCCCSc3sccc3[N+](=O)[O-])c2C)n1` [Compound 40, (5-Chloro-2,6-dimethyl-pyrimidin-4-yl)-{3-methyl-4-[3-(3-nitro-thiophen-2-ylsulfanyl)-propylsulfanyl]-pyridin-2-ylmethyl}-amine] the same measures were 174 to 180 °C and at most 0.1 µg/mL.
For `Cc1nc(C)c(Cl)c(NCc2nccc(SCCCSCc3ccncc3)c2C)n1` [Compound 24, (5-Chloro-2,6-dimethylpyrimidin-4-yl)-{3-methyl-4-[3-(pyridin-4-ylmethylsulfanyl)propylsulfanyl]pyridin-2-ylmethyl}amine] the same measures were 124 to 125 °C and at most 0.1 µg/mL.
`Cc1nc(C)c(Cl)c(NCc2nccc(SCC3CCCN(C)C3)c2C)n1` (centres unmarked) [Compound 44, (5-Chloro-2,6-dimethyl-pyrimidin-4-yl)-[3-methyl-4-(1-methyl-piperidin-3-ylmethylsulfanyl)-pyridin-2-ylmethyl]-amine] yielded a melting point of 148 to 149 °C. Besides, the MIC50 in the data set on Helicobacter pylori is at most 0.1 µg/mL.
As for `Cc1nc(C)c(Cl)c(NCc2nccc(SCCCCSCCn3c([N+](=O)[O-])cnc3C)c2C)n1` [Compound 19, (5-Chloro-2,6-dimethylpyrimidin-4-yl)-(3-methyl-4-{4-[2-(2-methyl-5-nitroimidazol-1-yl)-ethylsulfanyl]butylsulfanyl}pyridin-2-ylmethyl)amine], the melting point lay within 142 to 144 °C. For the same compound, the MIC50 in the data set on Helicobacter pylori is at most 0.1 µg/mL.
`Cc1c(OCCSCc2ccco2)ccnc1CNc1ncncc1Cl` [Compound 58, (5-Chloro-pyrimidin-4-yl)-{4-[2-(furan-2-ylmethylsulfanyl)-ethoxy]-3-methyl-pyridin-2-ylmethyl}-amine]: the melting point was in the range of 129 to 130 °C. Further, the MIC50 in the data set with Helicobacter pylori is at most 0.1 µg/mL.
With `Cc1nc(C)c(Cl)c(NCc2nccc(OCCCCSCc3ccncc3)c2C)n1` [Compound 15, (5-Chloro-2,6-dimethylpyrimidin-4-yl)-{3-methyl-4-[4-(piridin-4-ylmethylsulfanyl)-butoxy]pyridin-2-ylmethyl}amine], the “Appr. MIC 50” value in the data set on Helicobacter pylori is on record as “≦0.1 μg/ml”.
The compound `Cc1nc(C)c(Cl)c(NCc2nccc(CNCCO)c2Cl)n1` [Compound 2, 2-({3-Chloro-2-[(5-chloro-2,6-dimethylpyrimidin-4-ylamino)methyl]pyridin-4-yl}methylamino)ethanol] showed a melting point of 162 to 165 °C.
In the case of `Cc1nc(C)c(Cl)c(NCCCSc2ccnc(CNc3nc(C)nc(C)c3Cl)c2C)n1` [Compound 7, {4-[3-(5-Chloro-2,6-dimethylpyrimidin-4-ylamino)propylsulfanyl]-3-methylpyridin-2-yl-methyl}-(5-chloro-2,6-dimethylpyrimidin-4-yl)amine], the MIC50 in the data set on Helicobacter pylori was at most 0.1 µg/mL.
Take `Cc1nc(C)c(Cl)c(NCc2nccc(SCCCSCCO[C@@H]3O[C@H](CO)[C@@H](O)[C@H](O)[C@H]3O)c2C)n1` [Compound 39, 2-(3-{2-[(5-Chloro-2,6-dimethyl-pyrimidin-4-ylamino)-methyl]-3-methyl-pyridin-4-ylsulfanyl}-propylsulfanyl)-β-D-glucopyranoside]: the “Appr. MIC 50” value with Helicobacter pylori is given as “≦0.1 μg/ml”.
